Reference: patent publication US10450593B2, “Type II fatty acid synthesis enzymes in reverse β-oxidation” (William Marsh Rice University, priority 2014, dated 2019)
Read-outs that look alike come from different tables or passages of the source.

Tests used:
[1] = molecular target: T1, FabI (Escherichia coli, UniProt P0AEK4)
T1 sequence (P0AEK4 1-262): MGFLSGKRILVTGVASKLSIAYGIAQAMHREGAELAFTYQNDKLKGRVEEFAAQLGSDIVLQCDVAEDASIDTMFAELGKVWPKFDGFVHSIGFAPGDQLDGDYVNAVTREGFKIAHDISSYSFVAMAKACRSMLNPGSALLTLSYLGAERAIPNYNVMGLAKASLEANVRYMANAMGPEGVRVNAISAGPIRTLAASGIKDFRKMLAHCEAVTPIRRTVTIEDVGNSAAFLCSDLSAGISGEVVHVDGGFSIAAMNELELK

[2] = molecular target: T1, FabI; experiment: Inhibition of FabI crotonyl-CoA reduction activity by CoA thioesters; format: biochemical, E. coli; settings: for inhibitory effect on FabI activity: CoA thioester at 20 or 200 μM
Description: FIG. 3. Characterization of crotonyl-CoA reduction to butyryl-CoA by FabI. FIG. 3A. Mass spectrum analysis of FabI reduction of crotonyl-CoA to butyryl-CoA. (i) Controls of crotonyl-CoA (836.3 m/z—gray) and butyryl-CoA (838.3 m/z—black). (ii) Reaction mixture without FabI. (iii) Reaction mixture with FabI. FIG. 3B. pH activity profile of FabI with crotonyl-CoA and NADH relative to pH 7.5 (1.0). FIG. 3C. Inhibition profile of crotonyl-CoA reduction activity for FabI with the indicated CoA thioesters at either 20 or 200 μM relative to activity in absence of inhibitor (100%).
(§1) For measurement of enzymatic activities from fermentation samples, cells were disrupted as previously reported (Dellomonaco, Clomburg, Miller, & Gonzalez, 2011). The HIS Tagged FabI protein was expressed from pCA24N-FabI from the ASKA collection (Kitagawa et al., 2005) in BL21(DE3) cells (NEW ENGLAND BIOLABS™) induced at OD600≈0.4 with 0.1 mM IPTG and shaken O/N at Room Temperature. FabI protein was harvested and purified as previously reported using Talon Metal Affinity Resin (CLONTECH LABORATORIES™) (Clomburg et al., 2012).
(§2) Thiolase activity (Wiesenborn, Rudolph, & Papoutsakis, 1988) and β-hydroxybutyryl-CoA dehydrogenase activity (Bond-Watts, Bellerose, & Chang, 2011a) were monitored accordingly as previously described (Clomburg et al., 2012). Trans-enoyl-CoA reductase activity for egTER, FabI, bsFabL, efFabK and vcFabV were monitored by loss of NADH (Bond-Watts et al., 2011a; Clomburg et al., 2012). Acyl-CoA dehydrogenase activity was monitored by measuring the reduction of Methyl-Thiazolyl Blue (MTT) coupled to the oxidation of butyryl-CoA (O'Brien & Frerman, 1977) in cellular extracts disrupted as above with the addition of 5 μM flavin adenine dinucleotide (FAD).
To understand the potential of utilizing FabI for BOX-R, we examined the effect of key CoA thioester intermediates of the BOX-R as well as a broad range of acyl-CoAs on FabI activity […].

[3] = molecular target: T1, FabI; settings: substrate of FabI, Bergler 1994; cited from earlier work
[4] = substrate: C/C=C/C(=O)SCCNC(=O)CCNC(=O)[C@H](O)C(C)(C)COP(=O)(O)OP(=O)(O)OC[C@H]1O[C@@H](n2cnc3c(N)ncnc32)[C@H](O)[C@@H]1OP(=O)(O)O; experiment: Kinetic parameters of purified N-terminal His-tagged FabI with crotonyl-CoA and NADH; format: biochemical, E. coli; settings: other: substrate of purified FabI, NADH
Procedure: as §1, §2
N-terminal His-tagged FabI was purified from an ASKA collection vector (Kitagawa et al., 2005) expressed in the strain BL21(DE3). […] This change in kcat increases the expected rate of crotonyl-CoA reduction by FabI to a value between 1.02×10^−7M s^−1 and 7.86×10^−11 M s^−1, which is in agreement with the rate observed in our cultures. To verify that FabI is utilizing NADH to convert crotonyl-CoA to butyryl-CoA, the reaction was monitored via HPLC-MS, which confirmed that FabI converts crotonyl-CoA almost completely to butyryl-CoA (FIG. 3a).

Molecule: CCCCCCCCCC(=O)SCCNC(=O)CCNC(=O)C(O)C(C)(C)COP(=O)(O)OP(=O)(O)OC[C@H]1O[C@@H](n2cnc3c(N)ncnc32)[C@H](O)[C@@H]1OP(=O)(O)O (stereo partly shown) [decaonyl-CoA]
- Ki ([1]; literature, Helmut Bergler 1996; read-out: Ki towards FabI; cited from earlier work): ~900 µM

Molecule: CC(O)CC(=O)SCCNC(=O)CCNC(=O)[C@H](O)C(C)(C)COP(=O)(O)OP(=O)(O)OC[C@H]1O[C@@H](n2cnc3c(N)ncnc32)[C@H](O)[C@@H]1OP(=O)(O)O (stereo partly shown) [3-hydroxy-butyryl-CoA]
- inhibitory effect on FabI activity [2]: minimal inhibitory effects

Molecule: CCCCCCCCCCCCCCCC(=O)SCCNC(=O)CCNC(=O)[C@H](O)C(C)(C)COP(=O)(O)OP(=O)(O)OC[C@H]1O[C@@H](n2cnc3c(N)ncnc32)[C@H](O)[C@@H]1OP(=O)(O)O [palmitoyl-CoA]
- inhibition at 20 µM ([2]; read-out: inhibition of FabI crotonyl-CoA reduction activity): ~50%
- Ki ([1]; read-out: Ki towards FabI; literature, Helmut Bergler 1996; cited from earlier work): 20 µM

Molecule: CC(=O)CC(=O)SCCNC(=O)CCNC(=O)[C@H](O)C(C)(C)COP(=O)(O)OP(=O)(O)OC[C@H]1O[C@@H](n2cnc3c(N)ncnc32)[C@H](O)[C@@H]1OP(=O)(O)O [acetoacetyl-CoA]
- inhibitory effect on FabI activity [2]: minimal inhibitory effects

Molecule: C/C=C/C(=O)SCCNC(=O)CCNC(=O)[C@H](O)C(C)(C)COP(=O)(O)OP(=O)(O)OC[C@H]1O[C@@H](n2cnc3c(N)ncnc32)[C@H](O)[C@@H]1OP(=O)(O)O [crotonyl-CoA]
- reported kcat [3]: 0.23 s⁻¹

Molecule: CCCCCCCCCCCCCC(=O)SCCNC(=O)CCNC(=O)[C@H](O)C(C)(C)COP(=O)(O)OP(=O)(O)OC[C@H]1O[C@@H](n2cnc3c(N)ncnc32)[C@H](O)[C@@H]1OP(=O)(O)O [myristoyl-CoA]
- percent inhibition of FabI crotonyl-CoA reduction activity ([2]; CoA thioester at 200 μM): highest percent inhibition

B1: FabI (Escherichia coli K-12) (protein)
chain: MGFLSGKRILVTGVASKLSIAYGIAQAMHREGAELAFTYQNDKLKGRVEEFAAQLGSDIVLQCDVAEDASIDTMFAELGKVWPKFDGFVHSIGFAPGDQLDGDYVNAVTREGFKIAHDISSYSFVAMAKACRSMLNPGSALLTLSYLGAERAIPNYNVMGLAKASLEANVRYMANAMGPEGVRVNAISAGPIRTLAASGIKDFRKMLAHCEAVTPIRRTVTIEDVGNSAAFLCSDLSAGISGEVVHVDGGFSIAAMNELELK
- Km [4]: 4.6 ± 0.6 mM
- kcat [4]: 5.3 ± 0.6 s⁻¹
- kcat/Km [4]: 1150 M⁻¹ s⁻¹
